Measured values as given in patent publication US5397702A, “Assay for and treatment of autoimmune diseases” (priority 1990, dated 1995).
Numbering of substitutions follows the chain as printed. Read-outs that look alike come from different tables or passages of the source.

Experiments:
mKv3.1b K+ channels = biological target: T1, mKv3.1b K+ channels (Mus musculus, UniProt P15388); experiment: cell-based; format: cell-based
T1 construct: expressed in transfected cells; host or cells: Xenopus oocytes injected with mKv3.1b mRNA
T1 sequence (P15388 1-585 isoform P15388-3): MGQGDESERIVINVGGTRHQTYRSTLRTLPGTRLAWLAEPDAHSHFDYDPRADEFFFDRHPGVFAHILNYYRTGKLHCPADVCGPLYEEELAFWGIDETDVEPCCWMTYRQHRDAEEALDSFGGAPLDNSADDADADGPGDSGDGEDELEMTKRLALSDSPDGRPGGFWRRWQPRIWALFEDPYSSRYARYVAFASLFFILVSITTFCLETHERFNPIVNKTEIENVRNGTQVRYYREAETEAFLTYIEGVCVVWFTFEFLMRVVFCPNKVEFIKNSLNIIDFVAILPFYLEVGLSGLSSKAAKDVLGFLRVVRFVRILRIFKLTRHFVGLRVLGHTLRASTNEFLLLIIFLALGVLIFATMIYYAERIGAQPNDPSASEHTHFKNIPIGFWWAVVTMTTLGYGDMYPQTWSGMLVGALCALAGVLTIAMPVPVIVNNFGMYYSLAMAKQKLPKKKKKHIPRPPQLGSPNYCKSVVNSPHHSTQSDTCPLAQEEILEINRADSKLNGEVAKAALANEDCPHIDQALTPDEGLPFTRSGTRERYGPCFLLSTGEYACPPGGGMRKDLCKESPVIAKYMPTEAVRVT
Experimental: For transcription, the plasmid was linearized by digestion with SacI in the polylinker.
All experiments were done at room temperature (22°-26°C.).
(§1) The pipette solution was 3 M KCl. […] CTX was purchased from Latoxan (IBF-Biotechnics, Inc., Columbia, Md.).
(§2) The patch-clamp amplifier (List L/M-EPC 7, Adams and List Associates, Ltd., Great Neck, N.Y.) was used in the voltage-clamp mode without series resistance compensation. Patchclamp electrodes were pulled from Accu-fill 90 Micropets (Becton, Dickinson & Co., Parsippany, N.J.) in three stages, coated with Sylgard (Dow Corning Corp., Midland, Mich.) and fire-polished to resistances, measured in the bath, of 2-7 M.OMEGA.. In all patch-clamp experiments, the command input of the patch-clamp amplifier was controlled by a PDP 11/73 computer via a digital-analog converter, and membrane currents were recorded at a bandwidth of 2 kHz. The holding potential was adjusted in all experiments to E=-80 mV. Correction for capacitative currents was achieved by analog subtraction.
Mouse Kv3.1b Expression in Oocytes: Xenopus oocytes express a high density of voltage-activated K+ channels following injection of mKv3.1b mRNA. […] Single channel recordings were done on outside-out patches from these oocytes, whereas gating and inactivation kinetics and pharmacological sensitivities were determined using outside-out patches of oocyte membrane injected with a 10 times more concentrated mRNA solution (50 nl of 0.1 μg/μ^1 mRNA).

[1] = biological target: T2, type l K+ channel (mouse) (Mus musculus, UniProt P15388); experiment: Patch-clamp pharmacology of type l K+ channels in mouse T cells; format: cell-based; details: for Kd: data from this paper
T2 construct: Native channels; endogenous in cells; host or cells: mouse T cells (CD4-CD8- T cells of autoimmune strains such as MRL-lpr; normal cytotoxic T cells)
T2 sequence (P15388 1-511): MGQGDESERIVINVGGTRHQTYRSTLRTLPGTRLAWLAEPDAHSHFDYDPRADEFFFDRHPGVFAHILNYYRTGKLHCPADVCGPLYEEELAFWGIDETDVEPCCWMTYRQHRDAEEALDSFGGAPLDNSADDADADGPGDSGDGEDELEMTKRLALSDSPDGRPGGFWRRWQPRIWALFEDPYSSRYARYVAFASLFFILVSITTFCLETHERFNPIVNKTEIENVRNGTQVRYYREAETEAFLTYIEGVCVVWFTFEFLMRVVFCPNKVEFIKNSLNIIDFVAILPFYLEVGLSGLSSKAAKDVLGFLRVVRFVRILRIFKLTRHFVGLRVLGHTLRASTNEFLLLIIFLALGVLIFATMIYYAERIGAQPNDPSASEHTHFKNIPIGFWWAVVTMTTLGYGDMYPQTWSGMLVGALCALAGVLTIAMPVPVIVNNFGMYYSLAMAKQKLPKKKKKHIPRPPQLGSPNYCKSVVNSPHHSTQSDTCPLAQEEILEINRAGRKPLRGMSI
Experimental: (§3) A gigohm seal patch-clamp technique was employed [Hamill, et al., Pflugers Arch. […] Cells were separated and stained as described infra. Maximum K^+ conductances (gk) Of CD4^- CD8^- Thy-l.2^+ T cells were determined from the maximum peak K^+ current elicited at +40 mV (holding potential -80 mV), assuming a reversal potential for K^+ of -80 mV. All experiments were done at room temperature (22° to 26° C.). The cells under investigation were bathed in Ringer solution (in mM): 160 NaCl, 4.5 KCl, 2 MgCl2, 1 CaCl2, 2 MgCl2, and 10 K-HEPES (pH 7.4). […] Each point represents gk in one single cell except the ones with the bars that reflect the mean±SD of previously reported data. The data from C3H (n=12), C3H-lpr (n=22), C3H-gld (n=26), and MRL-lpr (n=31) are taken from Grissmer, et al., J. Immunol. […] Three types of voltage-gated K^+ channels (n, l, n') are expressed by murine T cells, which can be distinguished by electrophysiological and pharmacological criteria. DeCoursey, et al., J. Gen.
(§4) K^+ channels were identified on the basis of their inactivation properties, channel closing kinetics, and sensitivity to block by tetraethylammonium (TEA). Typically type n K^+ channels are use-dependent, i.e., show cumulative inactivation by repetitive depolarizing pulses. Use dependence was determined by measuring the decline in the size of the peak K^+ current elicited with one per second repetitive depolarizing pulses of 200 ms duration.
(§5) (5) Electrophysiology: After phenotypic identification by epifluorescence microscopy, single T cells were patch-clamped at room temperature (22° to 26° C).
(§6) Solutions: The cells under investigation were bathed in normal mammalian Ringer solution containing (in mM): 160 NaCl, 4.5 KCl, 2 MgCl2, 1CaCl2, and 5 Na-HEPES (pH 7.4). […] In Ringer solutions containing tetraethylammonium chloride (TEA^+), NaCl was replaced by the appropriate TEA^+ concentrations keeping the osmolarity constant. The bath solution could be changed during recordings by bath perfusion.

[2] = biological target: T3, type n K+ channel (mouse) (Mus musculus, UniProt P16390); details: cited from earlier work
T3 construct: Native channels; endogenous in cells; host or cells: mouse T cells

[3] = biological target: T2, type l K+ channel (mouse); details: cited from earlier work; for effect on type l K+ channels, in words: MRL-lpr mice / mouse lymphocytes
[4] = biological target: T4, type n K+ channel (human) (Homo sapiens, UniProt P22001); details: data from DeCoursey, et al., 1984, Sands, 1989, read-out: Blockers, Kd / half-blocking dose; cited from earlier work
T4 construct: Native channels; endogenous in cells; host or cells: human T cells

[5] = biological target: T5, type l K+ channel (human) (Homo sapiens, UniProt P48547); experiment: Patch-clamp pharmacology of type l K+ channels in human Louckes lymphoma cells; format: cell-based
T5 construct: Native channels; endogenous in cells; host or cells: Louckes human B cell lymphoma line
T5 sequence (P48547 1-511): T2 sequence (P15388 1-511) with V265I
Experimental: For the two-electrode voltage-clamp experiments, cells were bathed in oocyte Ringer solution containing 96mM NaCl, 2 mM KCl, 1.8 mM CaCl2, 1 mM MgCl2, 5 mM N-2-hydroxyethylpiperazine-N'-2-ethanesulfonic acid (HEPES), and adjusted to pH 7.5 with NaOH. The pipette solution was 3 M KCl. Patch-clamp experiments were carried out under identical conditions in oocytes and in T cells, using a mammalian Ringer solution containing 160 mM NaCl, 4.5 mM KCl, 2 mM CaCl2,1 mM MgCl2, 5 mM HEPES, and adjusted to pH 7.4 with NaOH and a total osmolarity of 290-320 mosm/kg. Internal (pipette) solutions contained: 140 mM KF, 2 mM MgCl2, 1 mM CaCl2, 5mM HEPES, 11 mM K2 -ethylene glycol-bis(β-aminoethylether)N,N,N',N'-tetraacetic acid (EGTA). CTX was purchased from Latoxan (IBF-Biotechnics, Inc., Columbia, Md.).
as §2
Type l Channels in a Human Lymphoma Line: The human B cell lymphoma line, Louckes, has been reported to express large numbers of type l K+ channels (Shapiro and DeCoursey, (1988) Biophys. J. 53, 550a). We have confirmed that Louckes cells display a K+ channel with gating kinetics and pharmacological sensitivities indistinguishable from the type l K+ channels of mouse T cells (Table I and II). Because Louckes is a human cell line, it should be possible to compare the Kv3.1 transcripts isolated from these cells with Kv3.1 transcripts isolated from mouse T cells.

[6] = biological target: T3, type n K+ channel (mouse); experiment: Patch-clamp pharmacology of type n K+ channels in mouse T cells; format: cell-based
Experimental: as §3, §4, §5, §6

type n channels = details: cited from earlier work
[7] = biological target: T4, type n K+ channel (human); experiment: Patch-clamp pharmacology of type n K+ channels in human T cells; format: cell-based; details: for Kd: data from this paper
Source text: as §1, §2

mKv3.1a cDNA (NGK2) = details: data from Yokoyama, et al., 1989, cited from earlier work
rKv3.1 cDNA (Kv4) = details: data from Luneau, et al., 1991; read-out: Blockers, Kd / half-blocking dose; cited from earlier work
[8] = data from DeCoursey, et al., 1987, read-out: Blockers, Kd / half-blocking dose
[9] = Louckes cells, read-out: Blockers, Kd / half-blocking dose
[10] = 20 mM Co^2+, data from DeCoursey, et al., 1987
[11] = 20 mM Co^2+, data from this paper
[12] = second value, read-out: apparent dissociation constant Kd, from reduction of the peak current amplitude
[13] = first value, read-out: apparent dissociation constant Kd, from reduction of the integral under the current trace

T4 sequence (P22001 whole entry): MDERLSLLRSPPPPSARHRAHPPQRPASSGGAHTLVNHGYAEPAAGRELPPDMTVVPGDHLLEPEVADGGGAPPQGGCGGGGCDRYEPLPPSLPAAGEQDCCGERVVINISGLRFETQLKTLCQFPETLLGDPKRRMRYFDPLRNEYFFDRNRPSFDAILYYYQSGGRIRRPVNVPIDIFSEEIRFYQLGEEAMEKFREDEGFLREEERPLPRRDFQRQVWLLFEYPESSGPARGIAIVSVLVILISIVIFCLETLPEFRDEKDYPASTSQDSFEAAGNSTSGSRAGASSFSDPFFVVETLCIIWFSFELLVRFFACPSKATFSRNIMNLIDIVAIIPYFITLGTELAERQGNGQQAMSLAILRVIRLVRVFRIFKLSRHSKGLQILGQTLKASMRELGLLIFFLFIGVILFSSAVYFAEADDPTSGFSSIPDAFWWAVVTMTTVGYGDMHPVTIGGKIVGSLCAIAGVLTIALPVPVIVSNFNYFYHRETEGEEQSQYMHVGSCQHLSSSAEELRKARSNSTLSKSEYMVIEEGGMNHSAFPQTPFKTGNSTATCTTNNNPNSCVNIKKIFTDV
T3 sequence (P16390 whole entry): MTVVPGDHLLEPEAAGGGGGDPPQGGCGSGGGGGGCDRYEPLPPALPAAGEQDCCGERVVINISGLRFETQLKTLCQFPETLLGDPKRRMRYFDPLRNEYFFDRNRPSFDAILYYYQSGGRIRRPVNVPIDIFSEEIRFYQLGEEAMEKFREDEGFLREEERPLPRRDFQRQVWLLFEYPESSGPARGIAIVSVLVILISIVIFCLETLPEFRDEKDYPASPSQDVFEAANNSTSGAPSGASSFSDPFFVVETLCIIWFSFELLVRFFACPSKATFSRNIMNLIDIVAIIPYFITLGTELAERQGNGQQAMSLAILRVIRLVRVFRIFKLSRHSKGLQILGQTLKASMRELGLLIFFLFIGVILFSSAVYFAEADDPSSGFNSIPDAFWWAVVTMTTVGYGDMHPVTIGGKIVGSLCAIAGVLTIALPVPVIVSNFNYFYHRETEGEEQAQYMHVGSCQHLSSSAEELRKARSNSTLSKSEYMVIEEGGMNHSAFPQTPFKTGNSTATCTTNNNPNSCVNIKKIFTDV

In the case of `CC[N+](CC)(CC)CC` [TEA, tetraethylammonium], the Kd (mKv3.1b K+ channels; outside-out oocyte patch, pulses to +40 mV from -80 mV, read-out: Blockers, Kd / half-blocking dose) is listed as 150 µM, the IC50 [1] is listed as 100 µM and the Kd [2, 8] is listed as 10000 to 13000 µM. The Kd ([2]; type n channels of murine T cells, read-out: KD of block by TEA, identification criterion) was 8000 µM, the Kd [3, 8] was 80 µM and the Kd ([3]; type l channels of murine T cells, read-out: KD / half-blocking dose of block by TEA, identification criterion) was 100 µM. For the same compound, the Kd [4] was 8000 µM, the Kd [5, 9] was 120 µM and the IC50 ([5]; human Louckes lymphoma cells, read-out: half-blocking dose) was 100 µM. For the same compound, the IC50 [6] was 10000 µM.
For `[Co+2]` [Co^2+], the “Effect of 20 mM Co^2+: block gK(Co)/gK” value (mKv3.1b K+ channels; 20 mM Co^2+) is listed as 0.75, the “Effect of 20 mM Co^2+: shift ΔEn” value (mKv3.1b K+ channels; 20 mM Co^2+) is listed as 30 mV and the “effect on type n channels, in words” value (type n channels) is listed as “strongly blocked”. For the same compound, the “Effect of Co^2+: block gK(Co)/gK” value ([7]; 10 mM Co^2+ (*)) was 0.2, the “Effect of Co^2+: shift ΔEn” value ([7]; 10 mM Co^2+ (*)) was 28 mV and the “Effect of 20 mM Co^2+: block gK(Co)/gK” value [3, 10] was 0.9. For the same compound, the “Effect of 20 mM Co^2+: shift ΔEn” value [3, 10] was 36 mV, the “effect on type l K+ channels, in words” value [3] was “strongly shift the voltage dependence of activation to more depolarized potentials, with minimal blocking” and the “Effect of 20 mM Co^2+: block gK(Co)/gK” value ([5]; 20 mM Co^2+) was 0.76. The “Effect of 20 mM Co^2+: shift ΔEn” value ([5]; 20 mM Co^2+) was 30 mV, the “Effect of 20 mM Co^2+: block gK(Co)/gK” value [6, 11] was 0.27 and the “Effect of 20 mM Co^2+: shift ΔEn” value [6, 11] was 40 mV.
For `C=C[C@H]1C[N@@]2CC[C@H]1C[C@H]2[C@H](O)c1ccnc2ccc(OC)cc12` [quinine], the Kd (mKv3.1b K+ channels; 200 ms steps from -80 mV to 40 mV, first value, read-out: apparent dissociation constant Kd, from reduction of the integral under the current trace) was 4 µM, the “effect on mKv3.1b K+ currents, in words” value (mKv3.1b K+ channels; oocytes) was “increased the apparent rate of mKv3.1b K+ current inactivation, and produced "use-dependent" block” and the Kd (mKv3.1b K+ channels; [12]) was 20 µM. For the same compound, the Kd [1, 13] was 10 µM, the Kd [1, 12] was 19 µM and the Kd (mKv3.1a cDNA (NGK2); read-out: Blockers, quinine) was 1000 µM. The Kd [7, 13] was 13 µM, the Kd [7, 12] was 24 µM and the Kd [5, 13] was 10 µM. The Kd [5, 12] was 20 µM.
In the case of `[La+3]` [La3+], the “effect on type n channels, in words” value (type n channels) is listed as “strongly blocked” and the “effect on type l K+ channels, in words” value [3] is listed as “strongly shift the voltage dependence of activation to more depolarized potentials, with minimal blocking”.
For `Nc1ccncc1` [4-AP, 4-aminopyridine], the Kd (mKv3.1a cDNA (NGK2); read-out: Blockers, Kd / half-blocking dose) is listed as 600 µM, the Kd (rKv3.1 cDNA (Kv4)) is listed as 300 µM and the Kd [5, 9] is listed as under 100 µM.
